US10858360B2, “Tricyclic gyrase inhibitors” (priority 2011, dated 2020)
In brackets after ≈: the same amount, converted by molar mass.

Tests used:
S. aureus ATCC 13709 = test: MIC, S. aureus ATCC 13709 (Alamar Blue broth microdilution); type: cell-based; conditions: Alamar Blue read after overnight incubation at 35° C.; for MIC: Staphylococcus aureus, ATCC13709, S. aureus; for MIC Sa: S. aureus
E. coli ATCC 25922 = test: MIC, E. coli ATCC 25922; type: cell-based; conditions: Alamar Blue read after overnight incubation at 35° C.; for MIC: Escherichia coli, ATCC25922, E. coli; for MIC Ec: E. coli

| SMILES | MIC (S. aureus ATCC 13709) [µg/mL] | MIC (E. coli ATCC 25922) [µg/mL] | MIC Sa (S. aureus ATCC 13709) [µg/mL] | MIC Ec (E. coli ATCC 25922) [µg/mL] |
| --- | --- | --- | --- | --- |
| CNc1cc(F)cc2c1[nH]c1nc(Oc3cnc(C4CC4)nc3)nc(N3CC4CC(N)C4C3)c12 (centres unmarked) [4.240] | ≤ 0.5 | ≤ 0.5 | – | – |
| CNc1cc(F)cc2c1[nH]c1nc(Oc3cnc(C4CC4)nc3)nc(N3CC4C(N)C4C3)c12 (centres unmarked) [4.241] | – | – | ≤0.5 | ≤0.5 |
| CNc1cc(F)cc2c1[nH]c1nc(Oc3cnc(C4CC4)nc3)nc(N3CC(N)C4(CC4)C3)c12 (centres unmarked) [4.242] | – | – | ≤0.5 | ≤0.5 |
| CNc1cc(F)cc2c1[nH]c1nc(Oc3cnc(C4CC4)nc3)nc(N3CCC(N)C3)c12 (centres unmarked) [4.243] | – | – | ≤0.5 | ≤0.5 |
| CNc1cc(F)cc2c1[nH]c1nc(Oc3cnc(C4CC4)nc3)nc(N3CC4CC4(CN)C3)c12 (centres unmarked) [4.246] | ≤ 0.5 | ≤ 0.5 | – | – |
| CNc1cc(F)cc2c1[nH]c1nc(Oc3cnc(C4CC4)nc3)nc(N3CC4NCCCC43)c12 (centres unmarked) [4.247] | 1 (≈ 2.17 µM) | 8 (≈ 17.4 µM) | – | – |
| CNc1cc(F)cc2c1[nH]c1nc(Oc3cnc(C4CC4)nc3)nc(N3CC4CCNC3C4)c12 (centres unmarked) [4.248] | ≤ 0.5 | ≤ 0.5 | – | – |
| CNc1cc(F)cc2c1[nH]c1nc(Oc3cnc(C4CC4)nc3)nc(N3CC4C(CN)C4C3)c12 (centres unmarked) [4.249] | ≤ 0.5 | ≤ 0.5 | – | – |
| CNc1cc(F)cc2c1[nH]c1nc(Oc3cnc(C4CC4)nc3)nc(N3CC4CCNC4C3)c12 (centres unmarked) [4.250] | – | – | ≤0.5 | ≤0.5 |
| CNc1cc(F)cc2c1[nH]c1nc(Oc3cnc(C4CC4)nc3)nc(N3CC4CCC(CN)C4C3)c12 (centres unmarked) [4.253] | ≤ 0.5 | ≤ 0.5 | – | – |
| CNc1cc(F)cc2c1[nH]c1nc(Oc3cnc(C4CC4)nc3)nc(N3CC4C[C@@H](N)C4C3)c12 (some centres unmarked) [4.254] | ≤ 0.5 | ≤ 0.5 | – | – |
| CNc1cc(F)cc2c1[nH]c1nc(Oc3cnc(C4CC4)nc3)nc(N3CC4CCC3C4N)c12 (centres unmarked) [4.256] | ≤ 0.5 | ≤ 0.5 | – | – |
| CCc1ncc(Oc2nc(N3C[C@H](N)C4(CC4)C3)c3c(n2)[nH]c2c(NC)cc(F)cc23)cn1 [4.259] | ≤ 0.5 | ≤ 0.5 | – | – |
| CCc1ncc(Oc2nc(N3CC4CC4(CN)C3)c3c(n2)[nH]c2c(NC)cc(F)cc23)cn1 (centres unmarked) [4.261] | ≤ 0.5 | 1 (≈ 2.23 µM) | – | – |
| CCc1ncc(Oc2nc(N3CCC4(CC4N)C3)c3c(n2)[nH]c2c(NC)cc(F)cc23)cn1 (centres unmarked) [4.263] | ≤ 0.5 | ≤ 0.5 | – | – |
| CCc1ncc(Oc2nc(N3CC4C[C@@H](N)C4C3)c3c(n2)[nH]c2c(NC)cc(F)cc23)cn1 (some centres unmarked) [4.264] | ≤ 0.5 | ≤ 0.5 | – | – |
| CNc1cc(F)cc2c1[nH]c1nc(Oc3ccc4c(c3)C(=O)NC4)nc(N3C[C@H](N)C4(CC4)C3)c12 [4.265] | ≤ 0.5 | 4 (≈ 8.45 µM) | – | – |
| CNc1cc(F)cc2c1[nH]c1nc(Oc3ccc4c(c3)C(=O)NC4)nc(N3CCC4(CC4N)C3)c12 (centres unmarked) [4.266] | – | – | ≤0.5 | 1 (≈ 2.11 µM) |
| CNc1cc(F)cc2c1[nH]c1nc(Oc3ccc4c(c3)C(=O)NC4)nc(N3CC4[C@H](C[C@H]4N)C3)c12 (some centres unmarked) [4.267] | ≤ 0.5 | 4 (≈ 8.45 µM) | – | – |
| CNc1cc(F)cc2c1[nH]c1nc(Oc3ccc4c(c3)C(=O)NC4)nc(N3CC4CCNC4C3)c12 (centres unmarked) [4.269] | – | – | ≤0.5 | 4 (≈ 8.45 µM) |
| CNc1cc(F)cc2c1[nH]c1nc(Oc3ccc4c(c3)C(=O)NC4)nc(N3CC4(CCC4N)C3)c12 (centres unmarked) [4.270] | – | – | ≤0.5 | 2 (≈ 4.22 µM) |
| CNc1cc(F)cc2c1[nH]c1nc(Oc3cncc(Cl)c3)nc(N3CC4CC(N)C4C3)c12 (centres unmarked) [4.271] | – | – | ≤0.5 | ≤0.5 |
| CNc1cc(F)cc2c1[nH]c1nc(Oc3cncc(Cl)c3)nc(N3CC4C(N)C4C3)c12 (centres unmarked) [4.272] | ≤ 0.5 | ≤ 0.5 | – | – |

| SMILES | MIC (S. aureus ATCC 13709) [µg/mL] | MIC (E. coli ATCC 25922) [µg/mL] | MIC Sa (S. aureus ATCC 13709) [µg/mL] | MIC Ec (E. coli ATCC 25922) [µg/mL] |
| --- | --- | --- | --- | --- |
| CNc1cc(F)cc2c1[nH]c1nc(Oc3cncc(Cl)c3)nc(N3CC(N)C4(CC4)C3)c12 (centres unmarked) [4.273] | – | – | ≤0.5 | 2 (≈ 4.41 µM) |
| CNc1cc(F)cc2c1[nH]c1nc(Oc3cncc(Cl)c3)nc(N3CC4C[C@@H](N)C4C3)c12 (some centres unmarked) [4.274] | ≤ 0.5 | ≤ 0.5 | – | – |
| CNc1cc(F)cc2c1[nH]c1nc(Oc3cncc(Cl)c3)nc(N3CC4(CCC4N)C3)c12 (centres unmarked) [4.275] | – | – | ≤0.5 | ≤0.5 |
| CNc1cc(F)cc2c1[nH]c1nc(Oc3cncc(Cl)c3)nc(N3CC4CC3CC4N)c12 (centres unmarked) [4.276] | – | – | ≤0.5 | 8 (≈ 17.6 µM) |
| CNc1cc(F)cc2c1[nH]c1nc(Oc3cncc(Cl)c3)nc(N3CC(N)C3)c12 [4.277] | ≤ 0.5 | ≤ 0.5 | – | – |
| CNc1cc(F)cc2c1[nH]c1nc(Oc3cncc(Cl)c3)nc(N3CCC4(C[C@H]4N)C3)c12 (some centres unmarked) [4.278] | ≤ 0.5 | ≤ 0.5 | – | – |
| CNc1cc(F)cc2c1[nH]c1nc(Oc3cncc(Cl)c3)nc(N3CC4CC3CC4N)c12 (centres unmarked) [4.279] | – | – | ≤0.5 | ≤0.5 |
| CNc1cc(F)cc2c1[nH]c1nc(Oc3cnc(C(F)(F)F)nc3)nc(N3C[C@@H]4[C@@H](N)[C@@H]4C3)c12 [4.280] | ≤ 0.5 | ≤ 0.5 | – | – |
| CNc1cc(F)cc2c1[nH]c1nc(Oc3cncc(Br)c3)nc(N3CC4CC(N)C4C3)c12 (centres unmarked) [4.283] | – | – | ≤0.5 | ≤0.5 |
| CNc1cc(F)cc2c1[nH]c1nc(Oc3cncc(Br)c3)nc(N3CC4CC3CC4N)c12 (centres unmarked) [4.284] | – | – | ≤0.5 | ≤0.5 |
| CNc1cc(F)cc2c1[nH]c1nc(Oc3cnc(C4CCC4)nc3)nc(N3CC4CC(N)C4C3)c12 (centres unmarked) [4.285] | ≤ 0.5 | ≤ 0.5 | – | – |
| CNc1cc(F)cc2c1[nH]c1nc(Oc3cnc(C4CCC4)nc3)nc(N3CC4C(N)C4C3)c12 (centres unmarked) [4.286] | ≤ 0.5 | ≤ 0.5 | – | – |
| CNc1cc(F)cc2c1[nH]c1nc(Oc3cnc(C4CCC4)nc3)nc(N3C[C@H](N)C4(CC4)C3)c12 [4.287] | ≤ 0.5 | ≤ 0.5 | – | – |
| CNc1cc(F)cc2c1[nH]c1nc(Oc3ccc4c(N)nc(C)nc4c3)nc(N3CC4C(N)C4C3)c12 (centres unmarked) [4.288] | – | – | 4 (≈ 8.24 µM) | >16 |
| CNc1cc(F)cc2c1[nH]c1nc(Oc3cnc4ccoc4c3)nc(N3CC4CC(N)C4C3)c12 (centres unmarked) [4.290] | ≤ 0.5 | ≤ 0.5 | – | – |
| CNc1cc(F)cc2c1[nH]c1nc(Oc3cnc4ccoc4c3)nc(N3CC4C(N)C4C3)c12 (centres unmarked) [4.291] | ≤ 0.5 | ≤ 0.5 | – | – |
| CNc1cc(F)cc2c1[nH]c1nc(Oc3cnc4ccoc4c3)nc(N3CC(N)C4(CC4)C3)c12 (centres unmarked) [4.292] | – | – | ≤0.5 | ≤0.5 |
| CNc1cc(F)cc2c1[nH]c1nc(Oc3cnc4ccoc4c3)nc(N3CC4CCC(N)C4C3)c12 (centres unmarked) [4.293] | – | – | ≤0.5 | 1 (≈ 2.11 µM) |
| CNc1cc(F)cc2c1[nH]c1nc(Oc3cnc4c(c3)OCCO4)nc(N3CC4CC(N)C4C3)c12 (centres unmarked) [4.294] | ≤ 0.5 | 1 (≈ 2.09 µM) | – | – |
| CNc1cc(F)cc2c1[nH]c1nc(Oc3cnc4c(c3)OCCO4)nc(N3C[C@H](N)C4(CC4)C3)c12 [4.295] | ≤ 0.5 | ≤ 0.5 | – | – |
| CNc1cc(F)cc2c1[nH]c1nc(Oc3cnc(N4CCC4)nc3)nc(N3C[C@H](N)C4(CC4)C3)c12 [4.297] | ≤ 0.5 | ≤ 0.5 | – | – |
| CNc1cc(F)cc2c1[nH]c1nc(Oc3cnc(N4CC(O)C4)nc3)nc(N3CC4C(N)C4C3)c12 (centres unmarked) [4.298] | ≤ 0.5 | 2 (≈ 4.19 µM) | – | – |
| CNc1cc(F)cc2c1[nH]c1nc(Oc3cnc(N4CC(O)C4)nc3)nc(N3C[C@H](N)C4(CC4)C3)c12 [4.299] | ≤ 0.5 | 4 (≈ 8.14 µM) | – | – |
